Drawing on a melting point compilation (Tetko et al.; mined from patent text by program, amines drawn as free bases though some values may be those of a salt), this text covers melting point for 87 compounds.

As to `CCOC(=O)C1=C(C)Nc2n[nH]cc2C1c1cccc2nonc12` (configuration not stated), the melting point turned out to be 228 °C. The compound `COC(=O)C1=C(S(N)(=O)=O)CCC1` returned a melting point of 83 to 84 °C. `Cc1ccc(C2=N[C@H](c3ccccc3)CO2)cc1C#CCN(O)C(N)=O`: the melting point lay within 169 to 170 °C.

`O=C(C=P(c1ccccc1)(c1ccccc1)c1ccccc1)CCCCO` registered a melting point of 121 to 124 °C. The figure for `COc1ccc(COc2c(OC)ccc3c2CC(C(=O)O)N(C(=O)C(c2ccccc2)c2ccccc2)C3)cc1C` (racemic) is 140 to 142 °C; for `CCS(=O)(=O)N=CNCc1nc(-c2csc(N=C(N)N)n2)cs1` it is 216 to 217 °C. `CN(CCNC(N)=N[N+](=O)[O-])c1ccc(Cl)nc1` displayed a melting point of 119 to 122 °C. The figure for `CNC(=O)N(OC(=O)Oc1ccccc1)c1ccc(Cl)c(Cl)c1` is 93 °C; for `COc1ccc(-n2nc(Sc3ccccc3C)c(C)c(C#N)c2=O)cc1` it is 144 to 146 °C; for `CN(C(=O)OC(C)(C)C)[C@@H](Cc1ccc(O)cc1)C(=O)N1CCN(c2ccc(Cl)c(Cl)c2)CC1` it is 77 to 78 °C. The figure for `COC1=C(OC)C(=O)C(CCC(C)CCC(=O)O)=C(C)C1=O` (configuration not stated) is 58 to 61 °C.

The compound `O=C1Nc2ccc(F)cc2Nc2sc3ccccc3c21` had a melting point of 249 to 250 °C. The figure for `CC(=O)Nc1cc(F)ccc1C(=O)NCCN1CCC(n2c(=O)[nH]c3ccccc32)CC1` is 210 °C. For `Cc1oc(-c2ccccc2)nc1CCC(=O)c1ccc(CC2OC(=O)NC2=O)cc1` (configuration not stated), the melting point lay within 198 to 200 °C. The figure for `NC(=O)CN(C(=O)CCCOc1ccc([N+](=O)[O-])c(C=O)c1)C1CCCCC1` is 104 to 105 °C. The figure for `CCOC(=O)C(C)Oc1cc(F)ccc1[N+](=O)[O-]` (configuration not stated) is 64 to 65 °C; for `O=C(C=CCl)c1cc(F)c(Cl)cc1Cl` it is 65 to 70 °C. The figure for `O=P(c1ccccc1)(c1ccccc1)C(O)C(O)P(=O)(c1ccccc1)c1ccccc1` (configuration not stated) is 211 to 214 °C. Compound `CC(C)(O)Cn1c(CO)nc2c(N)nc3cc(-c4ccccc4)cnc3c21` yielded a melting point of 244 to 245 °C. `CCCCC(Cc1ccc(OCCN(CC)CC)cc1)(C(=O)O)S(=O)(=O)c1ccc(OC)cc1` (configuration not stated) gave a melting point of 67 °C. Consider `CCC(C)(C)c1cc(-c2cccc(C=C3SC(N4CCOCC4)=NC3=O)c2)cc(F)c1O`, for which the melting point was 206 to 208 °C.

`COc1ccc(CN(C)CCCCCc2ccc(NC(=O)c3cccc4c(=O)c5ccccc5[nH]c34)cc2)cc1OC`: the melting point worked out at 110 °C. The figure for `O=C(O)c1cccc2ccc(-c3ccc([N+](=O)[O-])cc3)nc12` is 272 to 274 °C; for `Nc1ccsc1[N+](=O)[O-]` it is 159 °C. The figure for `CC1=C(C)N(C(=O)Oc2ccccc2)C(c2ccc(C)cc2)C=C1` (configuration not stated) is 106 °C.

For `NC(=O)CNc1ncccc1[N+](=O)[O-]`, the melting point fell in the range of 250 to 251 °C. The figure for `C#CCN(Cc1cc2c(=O)n(C)c(CN3CCN(c4ccccc4)CC3)nc2cc1Cl)c1ccc(C(=O)OC(C)(C)C)cc1` is over 95 °C; for `CC(C)(C)OC(=O)NCc1ccc2cc(C(N)=O)[nH]c2c1` it is 209 to 210 °C; for `O=C(NOC(=O)C(F)(F)F)C(F)(F)F` it is 40 to 50 °C. Turning to `Cc1cccc(Cn2cc(C(=O)C(=O)NC3=CC(=O)OC3)c3ccccc32)c1`, the melting point lay in the range of 298 to 300 °C. On to `O=C1Nc2ccc([N+](=O)[O-])cc2C(=O)N2CCC[C@@H]12`, for which the melting point is 259 to 261 °C. As to `CCOC(=O)C1=C(C)N(c2ccc(Cl)cc2)C(=O)CC1`, the melting point lay within 124 to 126 °C. For `COC(=O)c1nc(-c2ccc(Cl)cc2)c(F)c(N)c1OC`, the melting point was 93 to 94 °C. The figure for `O=CCC(=O)Nc1ccccc1` is 150 to 153 °C. Turning to `OC(Cn1cnnc1)(Cn1cncn1)Cn1cncn1`, the melting point is 220 °C. The figure for `CCN(CC)c1cc(=O)c2c(o1)c(OC)cc1ccccc12` is 150 to 151 °C; for `COc1ccc(C(C#N)CNC(=O)C(N)=O)cc1OC1CCCC1` (configuration not stated) it is 176 to 177 °C; for `CCn1c(COc2ccc(CC3SC(=O)NC3=O)cc2)nc2cccnc21` (configuration not stated) it is 210 to 212 °C. Consider `Cc1nn2c(-c3ccncc3)ccnc2c1C#N`, for which the melting point was 220 to 221 °C. The figure for `CC(C)(C)NC(=O)c1nn(-c2cc(F)cc(F)c2)c2c1C1CCC2C1` (configuration not stated) is 103 to 107 °C; for `O=C(CN1CCC(NC(=O)c2ccccc2)CC1)c1ccccc1` it is 168 °C. Compound `COc1cc(C(=O)c2ccc(C)cc2)cc(C(=O)O)c1OC` displayed a melting point of 135 to 136 °C.

Turning to `COC1=Cc2c(c(=O)[nH]c3ccc(OC)cc23)[C@@H](C)C1`, the melting point lay in the range of 153 to 157 °C. As for `CN(C)c1cccc2c1C1=NCCN1c1c(-c3noc(C4CC4)n3)ncn1-2`, the melting point was 148 to 150 °C. The figure for `CCCC(=O)N1CCN(C(=O)OC2C3=C(SCCS3)C(=O)N2c2ccc3ccc(Cl)nc3n2)CC1` (configuration not stated) is 248 °C. In turn, `COc1ccncc1-c1nc2c(N[C@H]3[C@@H](C(N)=O)[C@@H]4C=C[C@H]3C4)c(Br)cnc2[nH]1` yielded a melting point of 160 °C. The figure for `CN1CCC(NC(=O)Nc2ccccc2CCc2cc(C(C)(C)C)c(O)c(C(C)(C)C)c2)CC1` is 193 to 195 °C; for `C=CS(=O)(=O)CCCS(=O)(=O)C=C` it is 60 to 63 °C. `N#CN=C(NCc1ccccn1)Nc1cccc(-c2cccc(S(=O)(=O)NC(CC(=O)O)c3ccccc3)c2)c1` (configuration not stated): the melting point was 90 °C.

`CCS(=O)(=O)NC1CCCOc2c(C)cc(Cl)cc21` (configuration not stated) gave a melting point of 144 to 145 °C.

On to `N#Cc1cc(Cl)cc(Cl)c1Cl`, for which the melting point was 77 to 78 °C.

As for `Cn1ccnc1-c1ccccc1N`, the melting point is 152 to 153 °C. The compound `COc1cccc(Oc2c(NCCOc3ncccn3)ncnc2NS(=O)(=O)c2ccc(C(C)(C)C)cc2)c1` gave a melting point of 148 to 149 °C.

In turn, `CC1(C)Oc2ccc(Br)cc2C(n2ccccc2=O)=C1CN(O)C(N)=O` had a melting point of 216 °C. In turn, `COc1ncccc1NC(=O)[C@H]1[C@H](c2ccc(S(N)(=O)=O)cc2)C1(C)C` (relative stereo) registered a melting point of 216 to 218 °C. The figure for `N#Cc1ccc(N(Cc2ccc(OS(N)(=O)=O)cc2)n2cnnc2)cc1-c1ccc(C(F)(F)F)cc1` is 177 to 180 °C; for `CC(C)N1CCC(c2c[nH]c3ccc(NS(C)(=O)=O)cc23)CC1` it is 104 to 108 °C; for `Cc1ccnc(C(=O)c2[nH]c3cc(C(F)(F)F)ccc3c2CC(=O)O)c1` it is 210 to 220 °C. The figure for `O=C(O)c1ccc(CCCC2SCC(=O)N2CCC2(O)CCCCC2)s1` (configuration not stated) is 122 to 123 °C. The compound `CCCCCCCCCC(=O)Nc1ccc(S(=O)(=O)Nc2nnc(C(=O)OCC)s2)cc1` came in with a melting point of 101 to 102 °C. The figure for `COC(=O)C=Cc1ccc(OCCc2nc(-c3ccccc3)oc2C)nc1` is 138 to 139 °C.

Consider `CC(C)(C)OC(=O)c1ccc(C(=O)N(Cc2ccccc2)S(=O)(=O)c2ccc(Br)cc2)cc1`, for which the melting point was 120 to 122 °C. `COc1ccc(CN(CCN(C)CCCCNC(=O)NCCSCc2csc(NC(=N)N)n2)c2ccccn2)cc1` came in with a melting point of 104 to 106 °C. The figure for `O=C(c1ccc(F)c(F)c1)N1CCC[C@H](c2nc(-c3ccccn3)no2)C1` is 135 to 137 °C; for `FC(F)(F)c1ccc(Nc2ccccc2C=C(Br)Br)cc1` it is 74 to 75 °C.

`CC(=O)OCCCc1ccc(-c2ccc3cc(C(=O)OCc4ccccc4)ccc3c2)cc1C12CC3CC(CC(C3)C1)C2` registered a melting point of 132 °C.

With `N#Cc1ccc(Oc2ccccc2NC(=O)c2cccc([N+](=O)[O-])c2)cc1C#N`, the melting point was in the range of 176 to 178 °C.

In turn, `O=[N+]([O-])c1c(O)c(O)cc2cc(N=Nc3ccccc3)ccc12` showed a melting point of 238 to 244 °C.

On to `COC(=O)c1ccc(NC(C)=O)cc1OC`, for which the melting point was 130 to 132 °C. Consider `C=CCOc1cc(C(=O)OC)cc(OCC=C)c1NC(C)=O`, for which the melting point lay in the range of 135 to 137 °C. The figure for `NC1C(=O)N(CC(O)C(F)(F)F)c2ccccc2-c2ccccc21` (configuration not stated) is 192 to 194 °C; for `COC(=O)c1cn2c(n1)COc1ccc(NC(C)=O)cc1-2` it is 216 to 219 °C. The figure for `OCc1cccc2c1nc(-c1c(F)cccc1F)n2Cc1c(F)cccc1F` is 157 to 158 °C. The figure for `O=C(O)CCCCCc1nn(-c2ccccc2)c2c1CCCC2` is 95 to 97 °C; for `O=C(NCc1ccc(OCc2cccc(F)c2)cc1)C(=NO)c1ccccn1` it is 146 to 148 °C. `N#CNc1nc2ccccc2o1`: the melting point is 175 °C. The figure for `OCc1conc1-c1ccc(Cl)c(Cl)c1` is 103 to 104 °C; for `O=C(CCc1c(O)c2ccccc2oc1=O)c1ccccc1` it is 149 to 151 °C. Take `O=C(O)COc1cc(F)ccc1C(=S)NCc1cccc([N+](=O)[O-])c1`: the melting point is 147 to 150 °C. For `Cc1nc(Sc2cccc(C(=O)O)n2)sc1CC(=O)O`, the melting point lay within 211 to 213 °C.

In turn, `Cc1cccc(C(=O)n2c3c(c4ccccc42)CC(C(=O)O)CC3)c1` (configuration not stated) displayed a melting point of 180 to 182 °C. `C#CC1(OC(=O)c2ccccc2)C(COC(=O)c2ccc(Cl)cc2)OC(n2ccc(=O)[nH]c2=O)C1OC(=O)c1ccccc1` (configuration not stated) registered a melting point of 158 to 160 °C. The figure for `Cn1c(O)nc2cc(Cn3ccnc3)ccc21` is 207 °C; for `O=C(Nc1ccc2oc3c(c2c1)CCCC3)c1ccc(Cl)cc1` it is 214 °C; for `CC1CCc2c(-n3cccc3)ccc3c(=O)c(C(=O)O)cn1c23` (configuration not stated) it is 303 to 305 °C.

The compound `COCc1ccc2c(c1)ncn2-c1cccc(-c2ccccc2)c1` gave a melting point of 70 to 72 °C. The figure for `C[C@H](Cn1ncnn1)n1cnc2cc3c(=O)n(Cc4c[nH]nn4)nnc3cc2c1=O` is 180 to 182 °C.
